Source: ChEMBL document CHEMBL3885881, “DrugMatrix”
Values joined by “and” are separate entries in the source; they are usually repeats but may differ in a detail not shown here. Identical values can stand only once.

Species: Rattus norvegicus
Assay type: toxicity, organism-based, Sprague-Dawley
Conditions: in vivo, sc, 24 h, route mini-PUMP - SUBCUTANEOUS, time 1 day, vehicle 100 % SALINE; for ALBUMIN / ALKALINE PHOSPHATASE / ASPARTATE AMINOTRANSFERASE / BLOOD UREA NITROGEN / CARBON DIOXIDE / CHOLESTEROL / CREATINE PHOSPHOKINASE / CREATININE / GLUCOSE / LACTATE DEHYDROGENASE / PHOSPHORUS / POTASSIUM / SODIUM / TOTAL BILIRUBIN / URIC ACID: tissue Plasma
[1] = 0 mg/kg, vehicle control, tissue Blood, dose level Control
[2] = 0 mg/kg, vehicle control, dose level Control
[3] = 0.5 mg/kg, tissue Blood, dose level High
[4] = […], tissue Blood, dose 0.72 mg/Kg, dose level High
[5] = […], dose 0.72 mg/Kg, dose level High

SMILES: CC[C@H](C)[C@H](NC(=O)[C@H](Cc1ccc(O)cc1)NC(=O)[C@@H](NC(=O)[C@H](CCCNC(=N)N)NC(=O)[C@@H](N)CC(=O)O)C(C)C)C(=O)N[C@@H](Cc1cnc[nH]1)C(=O)N1CCC[C@H]1C(=O)N[C@@H](Cc1ccccc1)C(=O)O [ANGIOTENSIN II]
- ABSOLUTE SEGMENTED NEUTROPHIL [1]: 1753.5 CELLS/uL
- BASOPHIL [1]: 0.4% and 0%
- EOSINOPHIL [1]: 0.3% and 0.17%
- ERYTHROCYTE COUNT [1]: 6.25 x10E6/uL and 5.64 x10E6/uL
- HEMATOCRIT [1]: 41.8% and 34.52%
- HEMOGLOBIN [1]: 13.33 G/DL and 12.68 G/DL
- LEUKOCYTE COUNT [1]: 11.55 x10E3/uL and 13 x10E3/uL
- MEAN CORPUSCULAR HEMOGLOBIN [1]: 21.37 pg and 22.5 pg
- MEAN CORPUSCULAR HEMOGLOBIN CONCENTRATION [1]: 31.93 G/DL and 36.78 G/DL
- MEAN CORPUSCULAR VOLUME [1]: 66.93 fL and 61.18 fL
- MONOCYTE [1]: 2.4% and 1.83%
- NEUTROPHIL [1]: 23.4% and 13.5%
- NUCLEATED RED BLOOD CELLS [1]: 0.17 /100WBC
- PLATELET COUNT [1]: 1265.33 x10E3/uL and 679.17 x10E3/uL
- ALBUMIN [2]: 3.63 G/DL and 3.77 G/DL
- ALKALINE PHOSPHATASE [2]: 385.33 u/L and 291.17 u/L
- ASPARTATE AMINOTRANSFERASE [2]: 79.33 u/L and 74.5 u/L
- BLOOD UREA NITROGEN [2]: 13.33 mg/dL and 15.33 mg/dL
- CARBON DIOXIDE [2]: 40.67 mmol/L and 30 mmol/L
- CHOLESTEROL [2]: 86.33 mg/dL and 65.33 mg/dL
- CREATINE PHOSPHOKINASE [2]: 190.33 u/L
- CREATININE [2]: 0.4 mg/dL and 0.15 mg/dL
- GLUCOSE [2]: 165.67 mg/dL and 179.83 mg/dL
- LACTATE DEHYDROGENASE [2]: 103.33 u/L and 162.67 u/L
- PHOSPHORUS [2]: 11.7 mg/dL and 12.2 mg/dL
- POTASSIUM [2]: 5.5 MEQ/L and 5.73 MEQ/L
- SODIUM [2]: 145 MEQ/L and 144.7 MEQ/L
- TOTAL BILIRUBIN [2]: 0.27 mg/dL and 0.15 mg/dL
- URIC ACID [2]: 1 mg/dL and 1.93 mg/dL
- ABSOLUTE BASOPHIL [3]: 13.3 cells/µL
- ABSOLUTE EOSINOPHIL [3]: 46.7 cells/µL
- ABSOLUTE LYMPHOCYTE [3]: 5400 cells/µL
- ABSOLUTE MONOCYTE [3]: 230 cells/µL
- BASOPHIL [3]: 0.13%
- EOSINOPHIL [3]: 0.6%
- ERYTHROCYTE COUNT [3]: 6.26 x10E6/uL
- HEMATOCRIT [3]: 42.23%
- HEMOGLOBIN [3]: 13.53 G/DL
- LEUKOCYTE COUNT [3]: 7.88 x10E3/uL
- MEAN CORPUSCULAR HEMOGLOBIN [3]: 21.63 pg
- MEAN CORPUSCULAR HEMOGLOBIN CONCENTRATION [3]: 32.03 G/DL
- MEAN CORPUSCULAR VOLUME [3]: 67.47 fL
- MONOCYTE [3]: 2.8%
- NEUTROPHIL [3]: 26.93%
- PLATELET COUNT [3]: 1308.33 x10E3/uL
- ALBUMIN (0.5 mg/kg, dose level High): 3.93 G/DL
- ALKALINE PHOSPHATASE (0.5 mg/kg, dose level High): 341.33 u/L
- ASPARTATE AMINOTRANSFERASE (0.5 mg/kg, dose level High): 74 u/L
- BLOOD UREA NITROGEN (0.5 mg/kg, dose level High): 14 mg/dL
- CARBON DIOXIDE (0.5 mg/kg, dose level High): 42.67 mmol/L
- CHOLESTEROL (0.5 mg/kg, dose level High): 106.33 mg/dL
- CREATINE PHOSPHOKINASE (0.5 mg/kg, dose level High): 299.33 u/L
- CREATININE (0.5 mg/kg, dose level High): 0.5 mg/dL
- GLUCOSE (0.5 mg/kg, dose level High): 169.33 mg/dL
- LACTATE DEHYDROGENASE (0.5 mg/kg, dose level High): 65.33 u/L
- PHOSPHORUS (0.5 mg/kg, dose level High): 11.73 mg/dL
- POTASSIUM (0.5 mg/kg, dose level High): 5.2 MEQ/L
- SODIUM (0.5 mg/kg, dose level High): 146.33 MEQ/L
- TOTAL BILIRUBIN (0.5 mg/kg, dose level High): 0.2 mg/dL
- URIC ACID (0.5 mg/kg, dose level High): 0.93 mg/dL
- ABSOLUTE EOSINOPHIL [4]: 30.33 CELLS/uL
- ABSOLUTE LYMPHOCYTE [4]: 10495 CELLS/uL
- ABSOLUTE MONOCYTE [4]: 212 CELLS/uL
- ABSOLUTE SEGMENTED NEUTROPHIL [4]: 2262.67 CELLS/uL
- BASOPHIL [4]: 0%
- EOSINOPHIL [4]: 0.33%
- ERYTHROCYTE COUNT [4]: 6.56 x10E6/uL
- HEMATOCRIT [4]: 38.97%
- HEMOGLOBIN [4]: 14.37 G/DL
- LEUKOCYTE COUNT [4]: 13 x10E3/uL
- MEAN CORPUSCULAR HEMOGLOBIN [4]: 21.9 pg
- MEAN CORPUSCULAR HEMOGLOBIN CONCENTRATION [4]: 36.87 G/DL
- MEAN CORPUSCULAR VOLUME [4]: 59.37 fL
- MONOCYTE [4]: 1.67%
- NEUTROPHIL [4]: 17.67%
- NUCLEATED RED BLOOD CELLS [4]: 0.33 /100WBC
- PLATELET COUNT [4]: 1167.67 x10E3/uL
- ALBUMIN [5]: 4 G/DL
- ALKALINE PHOSPHATASE [5]: 462 u/L
- ASPARTATE AMINOTRANSFERASE [5]: 98.67 u/L
- BLOOD UREA NITROGEN [5]: 19 mg/dL
- CARBON DIOXIDE [5]: 32 mmol/L
- CHOLESTEROL [5]: 87 mg/dL
- CREATININE [5]: 0.14 mg/dL
- GLUCOSE [5]: 171 mg/dL
- LACTATE DEHYDROGENASE [5]: 143.33 u/L
- PHOSPHORUS [5]: 13.13 mg/dL
- POTASSIUM [5]: 6.48 MEQ/L
- SODIUM [5]: 141.6 MEQ/L
- TOTAL BILIRUBIN [5]: 0.2 mg/dL
- URIC ACID [5]: 2.37 mg/dL
